Source: paper PMC10766610, “DCAF1-based PROTACs with activity against clinically validated targets overcoming intrinsic- and acquired-degrader resistance” (Nature Communications, 2024)
Read-outs that look alike come from different tables or passages of the source.

Legend:
TMD8 cells = assay: Whole proteomics profile, DBt-10 vs (19), TMD8 cells; format: cell-based, human; conditions: 5 µM DBt-10 vs 5 µM (19), 6 h
Description: HEK293T and TMD8 cells were cultured according to protocol and 3 million cells were plated per sample and recovered for 24 h. The following day, cells were treated with indicated compounds at corresponding concentrations for 6 h. Cells were then harvested and washed 2× with PBS before removing all liquid and snap freezing in liquid nitrogen before sample preparation for proteomics.
TMT-labeled peptides were generated with the iST-NHS kit (PreOmics) and TMT10plex (duplicates per condition) or TMT18plex (triplicates per condition) reagent (Thermo Fisher Scientific). Equal amounts of labeled peptides were pooled and separated on a high pH fractionation system with a water-acetonitrile gradient containing 10 mM ammonium formate, pH 11[88]. Alternating rows of the resulting 72 fractions were pooled into 24 samples, dried and resuspended in water containing 0.1% formic acid.
The LC-MS analysis was carried out on an EASY-nLC 1200 system coupled to an Orbitrap Fusion Lumos Tribrid mass spectrometer (Thermo Fisher Scientific). […]
LC-MS raw files were analyzed with Proteome Discoverer 2.4 (Thermo Fisher Scientific). […] TMT reporter ions of the MS3 spectra were integrated with a 20 ppm tolerance and the reporter ion intensities were used for quantification. […] Protein relative quantification was performed using an in-house developed R (v.3.6) script. […]

TMD8 BTK-GFP/mCh cells = assay: Viability by FSC/SSC gate (flow cytometry) in TMD8 BTK-GFP/mCh cells; format: cell-based, human
How it was run: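 TMD8 BTK-GFP/mCh cells (25,000/well) dosed with compound for 24 h and analysed by flow cytometry. Viability is the decline in percentage of single cells within an FSC/SSC gate defined by DMSO-treated cells; three biological replicates, 4-parameter logistic fit.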

BRD7 = target: T1, BRD7 (Homo sapiens, UniProt Q9NPI1); assay: BRD7-HiBiT protein abundance luminescence assay in HEK293 cells
T1 sequence (Q9NPI1 1-651): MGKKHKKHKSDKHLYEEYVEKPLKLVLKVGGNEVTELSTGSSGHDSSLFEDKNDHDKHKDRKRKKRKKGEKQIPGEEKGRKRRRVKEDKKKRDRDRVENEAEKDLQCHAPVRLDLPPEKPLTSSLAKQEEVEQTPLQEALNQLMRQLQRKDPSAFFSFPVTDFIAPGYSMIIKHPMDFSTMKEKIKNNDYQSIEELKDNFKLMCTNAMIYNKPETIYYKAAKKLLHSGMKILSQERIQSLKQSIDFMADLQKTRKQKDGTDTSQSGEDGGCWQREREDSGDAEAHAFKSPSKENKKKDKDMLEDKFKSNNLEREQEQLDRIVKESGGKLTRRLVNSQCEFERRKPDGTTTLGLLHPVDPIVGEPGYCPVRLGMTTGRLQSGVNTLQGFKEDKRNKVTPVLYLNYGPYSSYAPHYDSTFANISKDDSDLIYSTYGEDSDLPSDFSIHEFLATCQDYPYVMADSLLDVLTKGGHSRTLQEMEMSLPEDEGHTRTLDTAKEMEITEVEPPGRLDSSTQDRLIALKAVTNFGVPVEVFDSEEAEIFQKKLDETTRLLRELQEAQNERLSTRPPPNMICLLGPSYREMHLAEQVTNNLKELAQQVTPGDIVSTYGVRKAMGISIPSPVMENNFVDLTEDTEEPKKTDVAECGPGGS
Description: HEK293/BRD9-HiBiT pools (PROMEGA # CS3023120) and HEK293/BRD7-HiBiT pools (PROMEGA # CS3023124) were purchased from Promega. We performed clonal selection for HEK293/BRD9-HiBiT cell line using single-cell sorting and screening for HiBiT expression using Nano-Glo HiBiT Lytic Detection System (Promega # N3030). The HEK293/BRD9-HiBiT clone and HEK293/BRD7-HiBiT pool to perform standard HiBiT assays.

[1] = target: DCAF1(WDR) + BRD9-BD(130-250) (Homo sapiens, UniProt Q9H8M2+Q9Y4B6, E1398S); assay: SPR ternary binding assay, immobilized DCAF1(WDR), BRD9-BD(130-250) in buffer
Chain of DCAF1(WDR) + BRD9-BD(130-250) (Q9Y4B6 1073-1399 E1398S): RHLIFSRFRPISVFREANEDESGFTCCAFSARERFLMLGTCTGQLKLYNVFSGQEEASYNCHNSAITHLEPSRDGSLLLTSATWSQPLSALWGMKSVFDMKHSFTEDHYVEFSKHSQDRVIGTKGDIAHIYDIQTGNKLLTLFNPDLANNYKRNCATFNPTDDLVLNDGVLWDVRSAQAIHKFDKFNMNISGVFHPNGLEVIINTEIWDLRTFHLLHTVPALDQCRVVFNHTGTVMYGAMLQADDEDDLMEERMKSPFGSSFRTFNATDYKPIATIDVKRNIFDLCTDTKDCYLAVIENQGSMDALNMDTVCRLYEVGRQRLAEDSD
Chain of DCAF1(WDR) + BRD9-BD(130-250) (Q9H8M2 130-250): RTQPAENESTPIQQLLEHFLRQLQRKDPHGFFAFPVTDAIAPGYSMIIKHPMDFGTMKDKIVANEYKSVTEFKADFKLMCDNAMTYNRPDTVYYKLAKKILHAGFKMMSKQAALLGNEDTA
Description: Surface plasmon resonance (SPR) experiments were performed on Biacore T200 and 8 K+ instruments (Cytiva). […] Binary complexes were analyzed with a kinetic 1:1 fit model to obtain KD values. The fit of apparent steady state RU intensities of the ternary complexes was performed using a bell-shaped curve algorithm implemented in Graphpad Prism. […] Residence times (t1/2) were calculated by the inversion of the off-rate.

## Cc1c(NC(=O)N2CC(O)(CC(C)(C)C)C2)cc(F)cc1-c1ncnc2[nH]c(-c3cnn(CC(=O)N4CCC5(CC4)CN(CCNC(=O)CCCC(=O)N4CCN(c6ccc7c(NCCN)nc(C8(c9ccc(Cl)cc9)CCCCC8)nc7c6)CC4)CCO5)c3)cc12 [DBt-10]
TMD8 cells
  only other protein with significantly reduced abundance (proteomics): LIM domain kinase 1 (LIMK1)
  strongest reduced protein (proteomics): BTK

## CC(=O)N1CCN(c2ccc3c(NCCN)nc(C4(c5ccc(Cl)cc5)CCCCC4)nc3c2)CC1 [compound 13]
TMD8 BTK-GFP/mCh cells; TMD8 BTK-GFP/mCh, 24 h
  concentrations with loss of viability: > 5 µM
TMD8 BTK-GFP/mCh cells; discussion
  concentrations leading to cellular toxicity: 5 to 10 µM

## COc1cc(-c2cn(C)c(=O)c3cnccc23)c(OC)cc1CN1CCC(OCCCCCC(=O)N2CCN(c3ccc4c(NCCN)nc(C5(c6ccc(Cl)cc6)CCCCC5)nc4c3)CC2)CC1 [DBr-1]
BRD7; 2 h
  maximal observed degradation (BRD7), % in brackets: 65%
BRD7; read-out: rel. DC50 (BRD7), 2 h
  DC50: 360 nM
[1]; Kd1, apparent KD of first sigmoidal transition, in the presence of 0.2 µM BRD9-BD(130-250)
  Kd: 0.02 µM
[1]; SPR KD [μM], + BRD9, with additional BRD9-BD(130-250)
  Kd: 0.005 µM
[1]; read-out: Kd2, apparent KD of second sigmoidal transition, in the presence of 0.2 µM BRD9-BD(130-250)
  Kd: 6.11 µM
